Test results published in ChEMBL document CHEMBL1201862, “PubChem BioAssay data set” (2004).
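Following 48 hours of exposure in 96-well plates, responses at five concentrations were used to interpolate endpoints linearly. Here, GI50 denotes the concentration required for 50% inhibition of growth.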 The source made the active and inactive calls. Cut-off read from the data, not from the text of the source: active = GI50 up to about 1.1 µM and inactive = higher. Square brackets hold non-standard residues; d marks the D form. Peptide text beside a SMILES is read from it. * marks the point of attachment. Bn2Val = CC(C)[C@@H](C(=O)*)N(Cc1ccccc1)Cc1ccccc1; NH(3,4-diMeO-benzyl) = COc1ccc(CN*)cc1OC; NMeV = CN[C@H](C(=O)O)C(C)C; dNMeA = CN[C@H](C)C(=O)O

Experiments:
Assay in all cases: NCI tumour cell line growth inhibition, 48 h
CCRF-CEM = system: CCRF-CEM
SK-MEL-2 = system: SK-MEL-2
OVCAR-3 = system: OVCAR-3
NCI-H522 = system: NCI-H522
T47D = system: T47D
UACC-257 = system: UACC-257
HOP-62 = system: HOP-62
MDA-MB-435 = system: MDA-MB-435
A498 = system: A498
SK-OV-3 = system: SK-OV-3
KM12 = system: KM12
SR = system: SR
Malme-3M = system: Malme-3M
DU-145 = system: DU-145
COLO 205 = system: COLO 205
LOX IMVI = system: LOX IMVI
HL-60 = system: HL-60
IGROV-1 = system: IGROV-1
HCT-15 = system: HCT-15
RXF 393 = system: RXF 393

Row | Structure (SMILES) | GI50 (CCRF-CEM) | GI50 (SK-MEL-2) | GI50 (OVCAR-3) | GI50 (NCI-H522) | GI50 (T47D) | GI50 (UACC-257) | GI50 (HOP-62) | GI50 (MDA-MB-435) | GI50 (A498) | GI50 (SK-OV-3) | GI50 (KM12) | GI50 (SR) | GI50 (Malme-3M) | GI50 (DU-145) | GI50 (COLO 205) | GI50 (LOX IMVI) | GI50 (HL-60) | GI50 (IGROV-1) | GI50 (HCT-15) | GI50 (RXF 393)
1 | COC(=O)c1ccc(Nc2nc3[nH]cnc3c(=O)[nH]2)cc1 | > 100 µM (inactive) | > 100 µM (inactive) | 54.6 µM (inactive) | > 100 µM (inactive) | 69 µM (inactive) | > 100 µM (inactive) | > 100 µM (inactive) | 51.9 µM (inactive) | > 100 µM (inactive) | 89.3 µM (inactive) | > 100 µM (inactive) | 65.9 µM (inactive) | > 100 µM (inactive) | > 100 µM (inactive) | > 100 µM (inactive) | 95.5 µM (inactive) | > 100 µM (inactive) | > 100 µM (inactive) | > 100 µM | –
2 | Nc1nc(-[n+]2ccc(-c3ccncc3)cc2)nc(Cl)c1Cl | 13.9 µM (inactive) | 57.4 µM (inactive) | 17.3 µM (inactive) | – | 16.5 µM (inactive) | 20.4 µM (inactive) | 43 µM (inactive) | > 100 µM (inactive) | > 100 µM (inactive) | > 100 µM (inactive) | 43.6 µM (inactive) | 20 µM (inactive) | 34.9 µM (inactive) | > 100 µM (inactive) | 36.2 µM (inactive) | 15 µM (inactive) | 18.6 µM (inactive) | 17.6 µM (inactive) | 49.4 µM | 16.5 µM (inactive)
3 | C[n+]1c2ccccc2c2/c(=C\C#N)c3ccccc3n21 | 3.66 µM (inactive) | 3.49 µM (inactive) | 3.44 µM (inactive) | – | 5.73 µM (inactive) | 3.06 µM (inactive) | 2.84 µM (inactive) | 5.43 µM (inactive) | 20 µM (inactive) | 3.88 µM (inactive) | 3.61 µM (inactive) | 3.91 µM (inactive) | 2.53 µM (inactive) | 6.75 µM (inactive) | 1.56 µM (inactive) | 3.48 µM (inactive) | 3.85 µM (inactive) | 3 µM (inactive) | 28.4 µM | 4.85 µM (inactive)
4 | CCCCC1C=Cn2c(=O)oc3c(OC(C)C)c(C)c(O)c1c32 (centres undefined) | 1.68 µM (inactive) | 1.66 µM (inactive) | 2.75 µM (inactive) | 1.24 µM (inactive) | 1.85 µM (inactive) | 2.44 µM (inactive) | 0.0497 µM (active) | 1.33 µM (inactive) | 0.0423 µM (active) | 3.14 µM (inactive) | 1.49 µM (inactive) | 0.548 µM (active) | 1.47 µM (inactive) | 0.652 µM (active) | 3.01 µM (inactive) | 0.566 µM (active) | 0.46 µM (active) | 1.88 µM (inactive) | 0.357 µM | –
5 | CCc1cc(O)c(Cl)c(C)c1Cl | 18.2 µM (inactive) | 43.3 µM (inactive) | 18.2 µM (inactive) | 11.7 µM (inactive) | 28.7 µM (inactive) | 17.2 µM (inactive) | 18.7 µM (inactive) | 16.4 µM (inactive) | 13 µM (inactive) | 18.3 µM (inactive) | 15.2 µM (inactive) | – | 19.4 µM (inactive) | 16.7 µM (inactive) | 21.4 µM (inactive) | 15.9 µM (inactive) | 33.7 µM (inactive) | 18.6 µM (inactive) | 17.4 µM | 14.1 µM (inactive)
6 | CC/C(=C\c1ccc(Cl)c(Cl)c1)[N+](=O)[O-] | – | 2.28 µM (inactive) | – | 1.72 µM (inactive) | 2.93 µM (inactive) | 1.94 µM (inactive) | 2.96 µM (inactive) | 1.71 µM (inactive) | 8.18 µM (inactive) | – | 2.96 µM (inactive) | 0.948 µM (active) | 1.92 µM (inactive) | 1.86 µM (inactive) | 1.72 µM (inactive) | 0.405 µM (active) | 1.18 µM (inactive) | 1.64 µM (inactive) | 1.66 µM | –
7 | COc1ccc(CNC(=O)[C@@H](C)N(C)C(=O)[C@@H]2CCCN2C(=O)[C@H](C(C)C)N(C)C(=O)[C@@H](NC(=O)[C@H](C(C)C)N(Cc2ccccc2)Cc2ccccc2)C(C)C)cc1OC (Bn2Val-V[NMeV]P[dNMeA]-{NH(3,4-diMeO-benzyl)}) | 2.23 µM (inactive) | 7.4 µM (inactive) | 5.9 µM (inactive) | 3.19 µM (inactive) | 7.43 µM (inactive) | 7.43 µM (inactive) | 8 µM (inactive) | 8.63 µM (inactive) | 11.5 µM (inactive) | 12.8 µM (inactive) | 10.4 µM (inactive) | – | 8.67 µM (inactive) | 14 µM (inactive) | 6.55 µM (inactive) | 7.76 µM (inactive) | 1.8 µM (inactive) | 5.14 µM (inactive) | 7.18 µM | 5.61 µM (inactive)
8 | COc1cc(/C=C2\N=C(c3ccccc3)N(c3nc4ccc(Sc5ccccc5)cc4[nH]3)C2=O)cc(OC)c1OC | 27.1 µM (inactive) | 15.4 µM (inactive) | 22.6 µM (inactive) | 18.1 µM (inactive) | 17.9 µM (inactive) | 19.6 µM (inactive) | 31.5 µM (inactive) | 5.19 µM (inactive) | 22 µM (inactive) | 30.1 µM (inactive) | 17.6 µM (inactive) | – | 16.9 µM (inactive) | 21.8 µM (inactive) | 18.9 µM (inactive) | 23.3 µM (inactive) | 14.7 µM (inactive) | 45.4 µM (inactive) | 21.1 µM | 22.1 µM (inactive)
9 | CN1N=C(c2ccccc2)c2cc(Cl)ccc2N=C1N/N=C/c1ccc(N(C)C)cc1 | > 100 µM (inactive) | – | > 100 µM (inactive) | > 100 µM (inactive) | > 100 µM (inactive) | > 100 µM (inactive) | > 100 µM (inactive) | > 100 µM (inactive) | – | > 100 µM (inactive) | > 100 µM (inactive) | 49.2 µM (inactive) | – | > 100 µM (inactive) | > 100 µM (inactive) | – | 39.6 µM (inactive) | > 100 µM (inactive) | 87.7 µM | > 100 µM (inactive)
10 | Nc1nc(Cl)nc(NCc2ccccc2)n1 | > 100 µM (inactive) | > 100 µM (inactive) | > 100 µM (inactive) | – | > 100 µM (inactive) | > 100 µM (inactive) | > 100 µM (inactive) | > 100 µM (inactive) | > 100 µM (inactive) | > 100 µM (inactive) | > 100 µM (inactive) | 67.8 µM (inactive) | > 100 µM (inactive) | > 100 µM (inactive) | > 100 µM (inactive) | > 100 µM (inactive) | 48 µM (inactive) | > 100 µM (inactive) | > 100 µM | > 100 µM (inactive)
11 | CC[C@@H]1/C=C/C=C/C[C@H](C)[C@@H](O)[C@](C)(O)C(=O)[C@H](C)[C@@H](O)[C@H](C)C(=O)[C@H](C)[C@@H](O)[C@H](C)/C=C/C(=O)O[C@H]2[C@@H](C)[C@@H](CC1)O[C@@]1(CC[C@@H](C)[C@@H](CC(C)O)O1)[C@@H]2C (some centres undefined) | 1.22 µM (inactive) | 2.13 µM (inactive) | – | < 0.01 µM (active) | < 0.01 µM (active) | < 0.01 µM (active) | – | 1.52 µM (inactive) | – | 3.13 µM (inactive) | 1.69 µM (inactive) | 2 µM (inactive) | 3.49 µM (inactive) | 1.88 µM (inactive) | < 0.01 µM (active) | 1.68 µM (inactive) | < 0.01 µM (active) | 1.98 µM (inactive) | 1.86 µM | 1.68 µM (inactive)
12 | CN(C)CCN1C(=O)N(CCN(C)C)c2c3cc(O)ccc3nc3c([N+](=O)[O-])ccc1c23 | 0.538 µM (active) | 24.8 µM (inactive) | – | 16.6 µM (inactive) | 18.4 µM (inactive) | 15.3 µM (inactive) | – | 14.8 µM (inactive) | 15.7 µM (inactive) | – | 7.91 µM (inactive) | 0.245 µM (active) | 15.8 µM (inactive) | 10.7 µM (inactive) | 10.4 µM (inactive) | 10.7 µM (inactive) | – | 2.81 µM (inactive) | 6.52 µM | –
13 | COc1ccc(C2CC(=O)Oc3ccccc3O2)cc1 (centres undefined) | 52.8 µM (inactive) | – | > 100 µM (inactive) | 32.1 µM (inactive) | > 100 µM (inactive) | > 100 µM (inactive) | > 100 µM (inactive) | 70.5 µM (inactive) | – | > 100 µM (inactive) | > 100 µM (inactive) | 52.7 µM (inactive) | – | > 100 µM (inactive) | > 100 µM (inactive) | – | 42.8 µM (inactive) | > 100 µM (inactive) | > 100 µM | > 100 µM (inactive)
14 | COC(=O)C(CC(C)C)NC(=O)C(NC(=O)c1ccc(-c2ccc(Cl)cc2Cl)o1)C(C)C (centres undefined) | 12.2 µM (inactive) | 21.3 µM (inactive) | 16.3 µM (inactive) | 23.2 µM (inactive) | 15.3 µM (inactive) | 17.1 µM (inactive) | 21.4 µM (inactive) | 22.1 µM (inactive) | – | 30.8 µM (inactive) | 20.8 µM (inactive) | 19.2 µM (inactive) | – | 21.8 µM (inactive) | 17.7 µM (inactive) | 15.7 µM (inactive) | 6.56 µM (inactive) | 18.7 µM (inactive) | 20.7 µM | 14.8 µM (inactive)
15 | COC(=O)[C@H](CNC(=O)/C=C/c1ccc(OC(C)=O)c(OC(C)=O)c1)NC(=O)/C=C/c1ccc(OC(C)=O)c(OC(C)=O)c1 | 39.3 µM (inactive) | > 100 µM (inactive) | > 100 µM (inactive) | – | 44.4 µM (inactive) | > 100 µM (inactive) | > 100 µM (inactive) | > 100 µM (inactive) | > 100 µM (inactive) | > 100 µM (inactive) | > 100 µM (inactive) | > 100 µM (inactive) | 16.4 µM (inactive) | > 100 µM (inactive) | > 100 µM (inactive) | > 100 µM (inactive) | > 100 µM (inactive) | > 100 µM (inactive) | 69.7 µM | > 100 µM (inactive)
